Assay: Hydrazine diffusion into vesicles assay (fluorimetric kinetic hydrazine transmembrane diffusion, SUVs encapsulating compound 2)
Details: for hydrazine diffusion across a phospholipid membrane, t ½: FIG. 9, membranes of the phosphatidylcholine lipid
Method: (iii) Hydrazine Diffusion into Vesicles Assay
Example 5: Hydrazine Diffusion Assay Procedure
1.0 mg of phosphatidylcholine lipid in chloroform solution was dispensed into a 20 mL scintillation vial, dried under a stream of Ar, and put under house vacuum in a desiccator overnight. The vial was then removed from the desiccator, purged of air with a stream of Ar, closed, and sealed with Parafilm.
6.0 g of monobasic sodium phosphate was dissolved in 1 L MilliQ water to make a 50 mM solution. The pH of the solution was raised to 7.40 by addition of 5N NaOH (typically 9 mL). Depending on the amount of NaOH added, NaCl was added (typically 10 g) to form a 500 mosM buffer.
Loosely capped Falcon tubes containing 45 ml of buffer or MilliQ water were placed in a desiccator and put under house vacuum overnight. The desiccator was then filled with Ar by first capping the inlet with a rubber septum, then piercing the septum with two Ar-filled balloons with attached needles, then simultaneously closing the desiccator valve to vacuum and opening the desiccator valve to the inlet. The desiccator top was then removed and the Falcon tubes quickly closed and sealed with Parafilm.
425-430 mg of hydrazine hydrochloride was weighed and dispensed into a 25 ml reagent bottle pre-filled with Ar; the bottle was then purged of air with a stream of Ar and closed. 25 ml degassed MilliQ water was added to the bottle, along with 300 μl 5N NaOH, under a stream of Ar. The bottle was closed and shaken vigorously. The pH was then adjusted to 7.40±0.02 with 5N NaOH, purging of air with Ar immediately after each pH measurement with a glass electrode. The bottle was purged of air with a stream of Ar, closed, and sealed with Parafilm.
A suspension of Sepharose® CL-4B in 10-30% ethanol (Sigma) was added to an 8.5-cm size-exclusion column. Methanol was washed out of the column by flushing with at least 5 column volumes of 50 mM phosphate buffer (described above, section B). Then the column was capped with a rubber septum, the septum was pierced with an Ar-filled balloon with attached needle, and the column was run until the meniscus descended to the top of the resin. Then, under a stream of Ar, the head space was filled with degassed buffer (described above, section C) and the Falcon tube containing the degassed buffer was purged of any incidental air with a stream of Ar, then closed. […]
The vesicles were loaded onto the column under a stream of Ar and then degassed phosphate buffer was added to the column under a stream of Ar; the column was subsequently run under Ar. […] Vesicles were not visible by eye or upon exposure to a UV lamp; vesicles were detected by directing the beam from a 5 mW green laser pointer horizontally through the cuvette; upon elution of the vesicles, bright scattering was visible.

Row | Compound | hydrazine diffusion across a phospholipid membrane, t ½ [h] | N2H4 Diff. t1/2 (min) pH = 6.30 (pH = 6.30, SUVs of the lipid) [min] | N2H4 Diff. t1/2 (min) pH = 7.40 (pH = 7.40, SUVs of the lipid) [min]
1 | CCCCCCCC/C=C\CCCCCCCC(=O)OC[C@H](COP(=O)([O-])OCC[N+](C)(C)C)OC(=O)CCCCCCC/C=C\CCCCCCCC [18:1 PC (DOPC)] | 0.907 ± 0.0933 |  | 
2 | CCCCCCCC/C=C\CCCCCCCCCCCC(=O)OC[C@H](COP(=O)([O-])OCC[N+](C)(C)C)OC(=O)CCCCCCCCCCC/C=C\CCCCCCCC [di22:1 PC (DEPC)] | 1.65 ± 0.1 | 583 ± 25 | 98.9 ± 6.0

— patent US10732108B2, “Fluorogenic water soluble hydrazine sensors” (priority 2017, dated 2020)
